Experimental data taken from article PMC5218480 (PLoS ONE, 2017).

Test system: MV-4-11 cells
Test: Gene expression microarray analysis (Affymetrix PrimeView) and GSEA
Format: cell-based, human
Set-up: RFU PODN (11730768_x_at) / Fold change /veh PODN (11730768_x_at) / RFU LINC00158 (11744669_a_at) / Fold change /veh LINC00158 (11744669_a_at) / RFU DUSP10 (11751237_a_at) / Fold change /veh DUSP10 (11751237_a_at) / RFU ID3 (11757404_x_at) / Fold change /veh ID3 (11757404_x_at) / RFU PLEKHG5 (11737974_s_at) / Fold change /veh PLEKHG5 (11737974_s_at) / RFU LRRC4B (11730491_at) / Fold change /veh LRRC4B (11730491_at) / RFU GIMAP4 (11747438_a_at) / Fold change /veh GIMAP4 (11747438_a_at) / RFU KRT8 (11758183_x_at) / Fold change /veh KRT8 (11758183_x_at) / RFU CNN1 (11734310_a_at) / Fold change /veh CNN1 (11734310_a_at) / RFU VPS37D (11726825_at) / Fold change /veh VPS37D (11726825_at) / RFU C10orf10 (11716522_x_at) / Fold change /veh C10orf10 (11716522_x_at) / RFU KIR2DL2 /// KIR2DL4 /// KIR2DL5A /// KIR2DL5B /// KIR2DS1 /// KIR2DS2 /// KIR2DS3 /// KIR2DS4 /// KIR3DL3 /// KIR3DL3 /// KIR3DS1 (11738374_at) / Fold change /veh KIR2DL2 /// KIR2DL4 /// KIR2DL5A /// KIR2DL5B /// KIR2DS1 /// KIR2DS2 /// KIR2DS3 /// KIR2DS4 /// KIR3DL3 /// KIR3DL3 /// KIR3DS1 (11738374_at) / RFU C1QL1 (11718748_at) / Fold change /veh C1QL1 (11718748_at) / RFU TMPRSS4 (11747572_a_at) / Fold change /veh TMPRSS4 (11747572_a_at) / RFU HAMP (11756126_x_at) / Fold change /veh HAMP (11756126_x_at) / RFU RNFT2 (11725882_a_at) / Fold change /veh RNFT2 (11725882_a_at) / RFU NR4A2 (11747474_a_at) / Fold change /veh NR4A2 (11747474_a_at) / RFU ABCC12 (11746883_a_at) / Fold change /veh ABCC12 (11746883_a_at) / RFU TMEM136 (11760407_x_at) / Fold change /veh TMEM136 (11760407_x_at) / RFU CLDN22 /// WWC2 (11732394_at) / Fold change /veh CLDN22 /// WWC2 (11732394_at) / RFU HLA-DPB1 (11760878_x_at) / Fold change /veh HLA-DPB1 (11760878_x_at) / RFU SPINT1 (11716480_a_at) / Fold change /veh SPINT1 (11716480_a_at) / RFU GAP43 (11754022_s_at) / Fold change /veh GAP43 (11754022_s_at) / RFU A4GNT (11735810_at) / Fold change /veh A4GNT (11735810_at) / RFU PRB3 (11715151_x_at) / Fold change /veh PRB3 (11715151_x_at) / RFU TUBB4B (11761932_at) / Fold change /veh TUBB4B (11761932_at) / RFU CAPN14 (11732068_a_at) / Fold change /veh CAPN14 (11732068_a_at) / RFU TMCC2 (11721928_a_at) / Fold change /veh TMCC2 (11721928_a_at) / RFU IRGQ (11745062_a_at) / Fold change /veh IRGQ (11745062_a_at) / RFU FAM174B (11720279_a_at) / Fold change /veh FAM174B (11720279_a_at) / RFU TMPRSS4 (11748680_a_at) / Fold change /veh TMPRSS4 (11748680_a_at) / RFU FAM212B (11763350_a_at) / Fold change /veh FAM212B (11763350_a_at) / RFU PLEKHG5 (11743358_a_at) / Fold change /veh PLEKHG5 (11743358_a_at) / RFU ZSCAN30 (11745921_a_at) / Fold change /veh ZSCAN30 (11745921_a_at) / RFU CMKLR1 (11741424_a_at) / Fold change /veh CMKLR1 (11741424_a_at) / RFU LOC101060620 /// MAPK8IP1 (11723275_at) / Fold change /veh LOC101060620 /// MAPK8IP1 (11723275_at) / RFU SPTSSB (11747773_x_at) / Fold change /veh SPTSSB (11747773_x_at) / RFU PRSS12 (11739890_at) / Fold change /veh PRSS12 (11739890_at) / RFU BIN1 (11741810_x_at) / Fold change /veh BIN1 (11741810_x_at) / RFU WNT11 (11732464_a_at) / Fold change /veh WNT11 (11732464_a_at) / RFU C10orf10 (11716521_a_at) / Fold change /veh C10orf10 (11716521_a_at) / RFU C5orf56 (11738089_at) / Fold change /veh C5orf56 (11738089_at) / RFU CYB561 (11721691_x_at) / Fold change /veh CYB561 (11721691_x_at) / RFU ANKRD19P (11752326_a_at) / Fold change /veh ANKRD19P (11752326_a_at) / RFU OR2T12 /// OR2T33 /// OR2T8 (11738714_s_at) / Fold change /veh OR2T12 /// OR2T33 /// OR2T8 (11738714_s_at) / RFU VCAN (11748164_a_at) / Fold change /veh VCAN (11748164_a_at) / RFU JSRP1 (11732532_at) / Fold change /veh JSRP1 (11732532_at) / RFU KRTAP10-11 (11738290_x_at) / Fold change /veh KRTAP10-11 (11738290_x_at) / RFU MYO3A (11730013_a_at) / Fold change /veh MYO3A (11730013_a_at) / RFU EBF3 (11725865_a_at) / Fold change /veh EBF3 (11725865_a_at) / RFU CAMK2N1 (11719241_x_at) / Fold change /veh CAMK2N1 (11719241_x_at) / RFU C5orf56 (11738088_a_at) / Fold change /veh C5orf56 (11738088_a_at) / RFU OLFML3 (11715873_a_at) / Fold change /veh OLFML3 (11715873_a_at) / RFU LOC100653217 /// NTM (11731650_a_at) / Fold change /veh LOC100653217 /// NTM (11731650_a_at) / RFU MAPK11 (11762145_a_at) / Fold change /veh MAPK11 (11762145_a_at) / RFU FIZ1 (11724087_x_at) / Fold change /veh FIZ1 (11724087_x_at) / RFU OASL (11726364_x_at) / Fold change /veh OASL (11726364_x_at) / RFU SOX15 (11748057_x_at) / Fold change /veh SOX15 (11748057_x_at) / RFU CD79A (11719716_a_at) / Fold change /veh CD79A (11719716_a_at) / RFU HIST1H1D (11736915_at) / Fold change /veh HIST1H1D (11736915_at) / RFU CASKIN2 (11723855_a_at) / Fold change /veh CASKIN2 (11723855_a_at) / RFU LOC730098 (11760151_x_at) / Fold change /veh LOC730098 (11760151_x_at) / RFU OR4N2 (11742367_at) / Fold change /veh OR4N2 (11742367_at) / RFU PRRT2 (11749266_a_at) / Fold change /veh PRRT2 (11749266_a_at) / RFU SNX32 (11753110_a_at) / Fold change /veh SNX32 (11753110_a_at) / RFU CDHR5 (11726645_a_at) / Fold change /veh CDHR5 (11726645_a_at) / RFU RCAN1 (11760418_a_at) / Fold change /veh RCAN1 (11760418_a_at) / RFU FAM167A (11723789_a_at) / Fold change /veh FAM167A (11723789_a_at) / RFU FAM26E (11764081_at) / Fold change /veh FAM26E (11764081_at) / RFU ISYNA1 (11749810_s_at) / Fold change /veh ISYNA1 (11749810_s_at) / RFU ACY1 (11761880_at) / Fold change /veh ACY1 (11761880_at) / RFU 11764098_at / Fold change /veh 11764098_at / RFU SAMD14 (11745864_x_at) / Fold change /veh SAMD14 (11745864_x_at) / RFU NPB (11741838_a_at) / Fold change /veh NPB (11741838_a_at) / RFU TMPRSS6 (11731388_a_at) / Fold change /veh TMPRSS6 (11731388_a_at) / RFU KRTAP10-2 (11738614_at) / Fold change /veh KRTAP10-2 (11738614_at) / RFU ARHGAP8 /// PRR5-ARHGAP8 (11727945_x_at) / Fold change /veh ARHGAP8 /// PRR5-ARHGAP8 (11727945_x_at) / RFU KRTAP5-7 /// NADSYN1 (11734609_at) / Fold change /veh KRTAP5-7 /// NADSYN1 (11734609_at) / RFU RASL12 (11751679_a_at) / Fold change /veh RASL12 (11751679_a_at) / RFU CDKN2B (11736163_a_at) / Fold change /veh CDKN2B (11736163_a_at) / RFU PRF1 (11729649_at) / Fold change /veh PRF1 (11729649_at) / RFU, ZNF638 /// ZNF638-IT1 / Fold change vs veh, ZNF638 /// ZNF638-IT1 / RFU, PANK3 / Fold change vs veh, PANK3 / RFU, SH3YL1 / Fold change vs veh, SH3YL1 / RFU, ZEB2 / Fold change vs veh, ZEB2 / RFU, NRIP1 / Fold change vs veh, NRIP1 / RFU, PTTG1IP / Fold change vs veh, PTTG1IP / RFU, CAPN2 / Fold change vs veh, CAPN2 / RFU, MED14 / Fold change vs veh, MED14 / RFU, SNORA58 / Fold change vs veh, SNORA58 / RFU, C1orf63 / Fold change vs veh, C1orf63 / RFU, LRRFIP1 / Fold change vs veh, LRRFIP1 / RFU, NDUFAF7 / Fold change vs veh, NDUFAF7 / RFU, SLC12A2 / Fold change vs veh, SLC12A2 / RFU, IBTK / Fold change vs veh, IBTK / RFU, ESF1 / Fold change vs veh, ESF1 / Fold change vs veh, TMEM50B / RFU, TAOK1 / Fold change vs veh, TAOK1 / RFU, ACBD3 / Fold change vs veh, ACBD3 / RFU, TMA16 / Fold change vs veh, TMA16 / RFU, RWDD3 / Fold change vs veh, RWDD3 / RFU, BCAT1 / Fold change vs veh, BCAT1 / RFU, EDEM3 / Fold change vs veh, EDEM3 / RFU, TMEM33 / Fold change vs veh, TMEM33 / RFU, WDR75 / Fold change vs veh, WDR75 / RFU, AHCTF1 / Fold change vs veh, AHCTF1 / RFU, TFRC / Fold change vs veh, TFRC / RFU, ZDHHC17 / Fold change vs veh, ZDHHC17 / RFU, NOM1 / Fold change vs veh, NOM1 / RFU, ARL8B / Fold change vs veh, ARL8B / RFU, ZBTB11 / Fold change vs veh, ZBTB11 / RFU, TAMM41 / Fold change vs veh, TAMM41 / RFU, KIAA1704 /// LOC100996395 / Fold change vs veh, KIAA1704 /// LOC100996395 / RFU, ING1 / Fold change vs veh, ING1 / RFU, TRMT61B / Fold change vs veh, TRMT61B / RFU, FUBP3 / Fold change vs veh, FUBP3 / RFU, TP53 / Fold change vs veh, TP53 / RFU, TNKS2 / Fold change vs veh, TNKS2 / RFU, ZFP14 / Fold change vs veh, ZFP14 / RFU, ACTR2 / Fold change vs veh, ACTR2 / RFU, PPP3R1 / Fold change vs veh, PPP3R1 / RFU, PIK3R1 / Fold change vs veh, PIK3R1 / RFU, HNRNPA1 / Fold change vs veh, HNRNPA1 / RFU, RNF170 / Fold change vs veh, RNF170 / RFU, ZNF28 / Fold change vs veh, ZNF28 / RFU, RNGTT / Fold change vs veh, RNGTT / RFU, OGT / Fold change vs veh, OGT / RFU, BRD1 / Fold change vs veh, BRD1 / RFU, MARS / Fold change vs veh, MARS / RFU, ZNF655 / Fold change vs veh, ZNF655 / RFU, FAHD1 / Fold change vs veh, FAHD1 / RFU, BDP1 / Fold change vs veh, BDP1 / RFU, LRRCC1 / Fold change vs veh, LRRCC1 / RFU, ARID1A / Fold change vs veh, ARID1A / RFU, ZNF146 / Fold change vs veh, ZNF146 / RFU, ZNF330 / Fold change vs veh, ZNF330 / RFU, GPN3 / Fold change vs veh, GPN3 / RFU, C9orf123 / Fold change vs veh, C9orf123 / RFU, N4BP2L2 / Fold change vs veh, N4BP2L2 / RFU, ARFIP1 / Fold change vs veh, ARFIP1 / RFU, FAM179B / Fold change vs veh, FAM179B / RFU, BCL10 / Fold change vs veh, BCL10 / RFU, UHRF1BP1L / Fold change vs veh, UHRF1BP1L / RFU, BET1 / Fold change vs veh, BET1 / RFU, CNOT2 / Fold change vs veh, CNOT2 / RFU, ZNF268 / Fold change vs veh, ZNF268 / Fold change vs veh, ZNF507 / RFU, DGCR2 / Fold change vs veh, DGCR2 / RFU, WDSUB1 / Fold change vs veh, WDSUB1 / Fold change vs veh, HSP90B1 /// MIR3652 / RFU, ADSS / Fold change vs veh, ADSS / RFU, GK / Fold change vs veh, GK / RFU, ZNF148 / Fold change vs veh, ZNF148 / RFU, TAF9 / Fold change vs veh, TAF9 / RFU, SLC1A5 / Fold change vs veh, SLC1A5 / RFU, SLMO2 / Fold change vs veh, SLMO2 / RFU, ABCC4 / Fold change vs veh, ABCC4 / RFU, LOC101060439 /// RAP1B / Fold change vs veh, LOC101060439 /// RAP1B / RFU, RFX7 / Fold change vs veh, RFX7 / RFU, GTPBP10 / Fold change vs veh, GTPBP10 / RFU, CNEP1R1 / Fold change vs veh, CNEP1R1 / RFU, BIVM-ERCC5 /// ERCC5 / Fold change vs veh, BIVM-ERCC5 /// ERCC5 / RFU, ILF3 / Fold change vs veh, ILF3 / RFU 11762660_at / Fold change /veh 11762660_at / RFU VCAN (11757783_s_at) / Fold change /veh VCAN (11757783_s_at) / RFU DDX43 (11728927_at) / Fold change /veh DDX43 (11728927_at) / RFU KRT8 (11758188_x_at) / Fold change /veh KRT8 (11758188_x_at) / RFU NKD1 (11759106_at) / Fold change /veh NKD1 (11759106_at) / RFU SRD5A1 (11742802_a_at) / Fold change /veh SRD5A1 (11742802_a_at) / RFU TPSAB1 /// TPSB2 (11721975_s_at) / Fold change /veh TPSAB1 /// TPSB2 (11721975_s_at) / RFU GSTM3 (11746129_a_at) / Fold change /veh GSTM3 (11746129_a_at) / RFU IL23R (11737362_x_at) / Fold change /veh IL23R (11737362_x_at) / RFU TMEM51 (11727254_a_at) / Fold change /veh TMEM51 (11727254_a_at) / RFU PIWIL2 (11732686_x_at) / Fold change /veh PIWIL2 (11732686_x_at) / RFU ORM1 (11744905_x_at) / Fold change /veh ORM1 (11744905_x_at) / RFU CCDC152 (11743942_at) / Fold change /veh CCDC152 (11743942_at) / RFU ECM1 (11717891_a_at) / Fold change /veh ECM1 (11717891_a_at) / RFU IL23R (11748794_a_at) / Fold change /veh IL23R (11748794_a_at) / RFU TNFAIP8L3 (11732012_x_at) / Fold change /veh TNFAIP8L3 (11732012_x_at) / RFU MBOAT4 (11741988_at) / Fold change /veh MBOAT4 (11741988_at) / RFU 11764193_at / Fold change /veh 11764193_at / RFU TMEM53 (11763286_at) / Fold change /veh TMEM53 (11763286_at) / RFU MAGEB2 (11727129_at) / Fold change /veh MAGEB2 (11727129_at) / RFU TMEM200A (11744735_a_at) / Fold change /veh TMEM200A (11744735_a_at) / RFU CCDC152 (11751479_a_at) / Fold change /veh CCDC152 (11751479_a_at) / RFU FAM211A (11726209_a_at) / Fold change /veh FAM211A (11726209_a_at) / RFU RGS16 (11746705_a_at) / Fold change /veh RGS16 (11746705_a_at) / RFU VCAN (11755009_s_at) / Fold change /veh VCAN (11755009_s_at) / RFU RHOB (11743442_s_at) / Fold change /veh RHOB (11743442_s_at) / RFU RGS16 (11720943_a_at) / Fold change /veh RGS16 (11720943_a_at) / RFU RGS16 (11720944_at) / Fold change /veh RGS16 (11720944_at) / RFU, VPS4B / Fold change vs veh, VPS4B / RFU, CREB1 / Fold change vs veh, CREB1 / RFU, DNAJC13 / Fold change vs veh, DNAJC13 / RFU, GNAQ / Fold change vs veh, GNAQ / RFU, CDK5R1 / Fold change vs veh, CDK5R1 / RFU, ZRANB3 / Fold change vs veh, ZRANB3 / RFU, CUL4A / Fold change vs veh, CUL4A / RFU, CCNY / Fold change vs veh, CCNY / RFU, UFL1 / Fold change vs veh, UFL1 / RFU, COG3 / Fold change vs veh, COG3 / RFU, DIAPH2 / Fold change vs veh, DIAPH2 / RFU, SKA2 / Fold change vs veh, SKA2 / RFU, AFF3 / Fold change vs veh, AFF3 / RFU, LMF1 / Fold change vs veh, LMF1 / RFU, IPO11 / Fold change vs veh, IPO11 / RFU, DFFB / Fold change vs veh, DFFB / RFU, FOXP1 / Fold change vs veh, FOXP1 / RFU, CARD8 / Fold change vs veh, CARD8 / RFU, STRN3 / Fold change vs veh, STRN3 / RFU, ADK / Fold change vs veh, ADK / RFU, RASSF2 / Fold change vs veh, RASSF2 / RFU, WIPF1 / Fold change vs veh, WIPF1 / RFU, LARP1B / Fold change vs veh, LARP1B / RFU, RASA1 / Fold change vs veh, RASA1 / RFU, RB1 / Fold change vs veh, RB1 / RFU, PPFIA1 / Fold change vs veh, PPFIA1 / RFU, MAT2A / Fold change vs veh, MAT2A / RFU, CCT5 / Fold change vs veh, CCT5 / RFU, WDR92 / Fold change vs veh, WDR92 / RFU, CUX1 / Fold change vs veh, CUX1 / RFU, TTC7A / Fold change vs veh, TTC7A / RFU, TMEM135 / Fold change vs veh, TMEM135 / RFU, DEPTOR / Fold change vs veh, DEPTOR / RFU, CPM / Fold change vs veh, CPM / RFU, DNAJB6 / Fold change vs veh, DNAJB6 / RFU, CACNA2D3 / Fold change vs veh, CACNA2D3 / RFU, DTX4 / Fold change vs veh, DTX4 / RFU, TFCP2 / Fold change vs veh, TFCP2 / RFU, GMCL1 /// GMCL1P1 / Fold change vs veh, GMCL1 /// GMCL1P1 / RFU, AEBP2 / Fold change vs veh, AEBP2 / RFU, SNHG1 /// SNORD22 /// SNORD25 /// SNORD26 /// SNORD27 /// SNORD28 /// SNORD29 /// SNORD31 / Fold change vs veh, SNHG1 /// SNORD22 /// SNORD25 /// SNORD26 /// SNORD27 /// SNORD28 /// SNORD29 /// SNORD31 / Fold change (Aza/veh), C12orf56 (ProbeSet 11735607_a_at) / Fold change (ACY-1035/veh), C12orf56 (ProbeSet 11735607_a_at) / Fold change (Aza/veh), FGFR1OP (ProbeSet 11751329_s_at) / Fold change (ACY-1035/veh), FGFR1OP (ProbeSet 11751329_s_at) / Fold change (Aza/veh), VPS36 (ProbeSet 11739960_a_at) / Fold change (ACY-1035/veh), VPS36 (ProbeSet 11739960_a_at) / RFU SYPL1 (11715823_x_at) / Fold change /veh SYPL1 (11715823_x_at) / RFU IGFBP7 (11715501_s_at) / Fold change /veh IGFBP7 (11715501_s_at) / RFU REEP3 (11722064_at) / Fold change /veh REEP3 (11722064_at) / RFU IGLL1 (11728026_x_at) / Fold change /veh IGLL1 (11728026_x_at): dose or concentration left out as unconfirmed
Conditions: ProbeSet 11733108_at; LIST D

## Nc1ncn([C@@H]2O[C@H](CO)[C@@H](O)[C@H]2O)c(=O)n1 [azacitidine]
  Fold change vs veh, GNAQ: 0.77
